Assay results as given in patent publication US12559492B2, “BRAF degraders” (C4 Therapeutics, Inc., priority 2020, dated 2026).

Biological target: BRAF^V600E protein (Homo sapiens, UniProt P15056, V600E)
Assay: HiBiT cellular BRAF V600E degradation assay
Format: cell-based
Conditions: 24 h incubation; for DC50: A375.10 cells (HiBiT tag knocked in at N-terminal of BRAF V600E), concentration at which 50% of total cellular BRAF V600E is degraded; for Emax: A375.10 cells, Emax = amount of residual protein remaining in the cell after compound treatment, read-out: HiBit 24 h Emax

BRAF^V600E protein, sequence (P15056 whole entry V600E): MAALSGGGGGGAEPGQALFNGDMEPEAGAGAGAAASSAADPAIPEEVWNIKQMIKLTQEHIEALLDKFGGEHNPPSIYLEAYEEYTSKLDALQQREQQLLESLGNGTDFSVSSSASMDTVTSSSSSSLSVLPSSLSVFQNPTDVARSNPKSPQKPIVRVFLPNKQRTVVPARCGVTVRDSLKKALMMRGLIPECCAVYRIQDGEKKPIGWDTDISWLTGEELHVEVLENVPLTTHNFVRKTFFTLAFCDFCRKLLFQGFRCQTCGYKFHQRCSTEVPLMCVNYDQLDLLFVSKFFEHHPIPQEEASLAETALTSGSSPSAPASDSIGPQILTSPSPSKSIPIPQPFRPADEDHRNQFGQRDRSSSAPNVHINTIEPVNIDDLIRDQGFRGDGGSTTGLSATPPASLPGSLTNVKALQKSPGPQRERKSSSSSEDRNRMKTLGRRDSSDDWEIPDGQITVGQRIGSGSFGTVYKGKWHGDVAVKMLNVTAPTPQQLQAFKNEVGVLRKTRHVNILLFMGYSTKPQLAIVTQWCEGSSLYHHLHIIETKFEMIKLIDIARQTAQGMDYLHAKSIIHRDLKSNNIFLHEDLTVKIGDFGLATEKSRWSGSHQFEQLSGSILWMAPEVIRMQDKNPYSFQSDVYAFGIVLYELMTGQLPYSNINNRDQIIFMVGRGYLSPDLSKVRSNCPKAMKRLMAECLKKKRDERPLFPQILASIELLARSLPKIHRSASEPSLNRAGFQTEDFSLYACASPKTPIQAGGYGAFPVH

SMILES | DC50 | Emax
CCN(C)S(=O)(=O)Nc1ccc(F)c(C(=O)c2c[nH]c3ncc(-c4cc(F)c(N5CCN(C(=O)CN6CCC(c7ccc(NC8CCC(=O)NC8=O)cc7)CC6)CC5)c(F)c4)cc23)c1F (stereo not drawn) [Example 93, 5-[4-[4-[2-[4-[4-[(2,6-dioxo-3-piperidyl)amino]phenyl]-1-piperidyl]acetyl]piperazin-1-yl]-3,5-difluoro-phenyl]-3-[3-[[ethyl(methyl)sulfamoyl]amino]-2,6-difluoro-benzoyl]-1H-pyrrolo[2,3-b]pyridine] | 23.8 nM | 8.31%
CCN(C)S(=O)(=O)Nc1ccc(F)c(C(=O)c2c[nH]c3ncc(-c4ccc(CN5CCN(CC(=O)N6CCC(c7ccc(NC8CCC(=O)NC8=O)cc7)CC6)CC5)cc4)cc23)c1F (stereo not drawn) [Example 94, 5-[4-[[4-[2-[4-[4-[(2,6-dioxo-3-piperidyl)amino]phenyl]-1-piperidyl]-2-oxo-ethyl]piperazin-1-yl]methyl]phenyl]-3-[3-[[ethyl(methyl)sulfamoyl]amino]-2,6-difluoro-benzoyl]-1H-pyrrolo[2,3-b]pyridine] | 21.2 nM | 12.8%
CCN(C)S(=O)(=O)Nc1ccc(F)c(C(=O)c2c[nH]c3ncc(-c4ccc(CN5CCN(C(=O)CN6CCN(c7ccc(NC8CCC(=O)NC8=O)cc7)CC6)CC5)cc4)cc23)c1F (stereo not drawn) [Example 95, 5-[4-[[4-[2-[4-[4-[(2,6-dioxo-3-piperidyl)amino]phenyl]piperazin-1-yl]acetyl]piperazin-1-yl]methyl]phenyl]-3-[3-[[ethyl(methyl)sulfamoyl]amino]-2,6-difluoro-benzoyl]-1H-pyrrolo[2,3-b]pyridine] | 30.4 nM | 12.8%
CCN(C)S(=O)(=O)Nc1cccc(C(=O)c2c[nH]c3ncc(-c4cnc(N5CCN(C(=O)CN6CCC(c7ccc(NC8CCC(=O)NC8=O)cc7F)CC6)CC5)nc4)cc23)c1F (stereo not drawn) [Example 97, 5-[2-[4-[2-[4-[4-[(2,6-dioxo-3-piperidyl)amino]-2-fluoro-phenyl]-1-piperidyl]acetyl]piperazin-1-yl]pyrimidin-5-yl]-3-[3-[[ethyl(methyl)sulfamoyl]amino]-2-fluoro-benzoyl]-1H-pyrrolo[2,3-b]pyridine] | 6.62 nM | 7.94%
CCN(C)S(=O)(=O)Nc1cccc(C(=O)c2c[nH]c3ncc(-c4cnc(N5CCN(C(=O)CC6(O)CCN(c7ccc(NC8CCC(=O)NC8=O)cc7)CC6)CC5)nc4)cc23)c1F (stereo not drawn) [Example 99, 5-[2-[4-[2-[1-[4-[(2,6-dioxo-3-piperidyl)amino]phenyl]-4-hydroxy-4-piperidyl]acetyl]piperazin-1-yl]pyrimidin-5-yl]-3-[3-[[ethyl(methyl)sulfamoyl]amino]-2-fluoro-benzoyl]-1H-pyrrolo[2,3-b]pyridine] | 9.55 nM | 13.2%
CCN(C)S(=O)(=O)Nc1cccc(C(=O)c2c[nH]c3ncc(-c4cnc(N5CCN(C(=O)CC6(O)CCN(c7ccc(NC8CCC(=O)NC8=O)cc7F)CC6)CC5)nc4)cc23)c1F (stereo not drawn) [Example 101, 5-[2-[4-[2-[1-[4-[(2,6-dioxo-3-piperidyl)amino]-2-fluoro-phenyl]-4-hydroxy-4-piperidyl]acetyl]piperazin-1-yl]pyrimidin-5-yl]-3-[3-[[ethyl(methyl)sulfamoyl]amino]-2-fluoro-benzoyl]-1H-pyrrolo[2,3-b]pyridine] | 3.38 nM | 10.2%
CCN(C)S(=O)(=O)Nc1cccc(C(=O)c2c[nH]c3ncc(-c4cnc(N5CCN(C(=O)CC6(O)CCN(c7ccc(NC8CCC(=O)NC8=O)cc7F)C6)CC5)nc4)cc23)c1F (stereo not drawn) [Example 102, 5-[2-[4-[2-[1-[4-[(2,6-dioxo-3-piperidyl)amino]-2-fluoro-phenyl]-3-hydroxy-pyrrolidin-3-yl]acetyl]piperazin-1-yl]pyrimidin-5-yl]-3-[3-[[ethyl(methyl)sulfamoyl]amino]-2-fluoro-benzoyl]-1H-pyrrolo[2,3-b]pyridine] | 6.88 nM | 8.28%
CCN(C)S(=O)(=O)Nc1cccc(C(=O)c2c[nH]c3ncc(-c4cnc(N5CCN(C(=O)CC6(O)CCN(c7ccc(NC8CCC(=O)NC8=O)cn7)CC6)CC5)nc4)cc23)c1F (stereo not drawn) [Example 105, 5-[2-[4-[2-[1-[5-[(2,6-dioxo-3-piperidyl)amino]-2-pyridyl]-4-hydroxy-4-piperidyl]acetyl]piperazin-1-yl]pyrimidin-5-yl]-3-[3-[[ethyl(methyl)sulfamoyl]amino]-2-fluoro-benzoyl]-1H-pyrrolo[2,3-b]pyridine] | 42.2 nM | 36.9%
CCN(C)S(=O)(=O)Nc1cccc(C(=O)c2c[nH]c3ncc(-c4cnc(N5CCN(C(=O)CC6CCN(c7ccc(NC8CCC(=O)NC8=O)cc7C(F)(F)F)CC6)CC5)nc4)cc23)c1F (stereo not drawn) [Example 106, 5-[2-[4-[2-[1-[4-[(2,6-dioxo-3-piperidyl)amino]-2-(trifluoromethyl)phenyl]-4-piperidyl]acetyl]piperazin-1-yl]pyrimidin-5-yl]-3-[3-[[ethyl(methyl)sulfamoyl]amino]-2-fluoro-benzoyl]-1H-pyrrolo[2,3-b]pyridine] | 34.8 nM | 11.5%
CCN(C)S(=O)(=O)Nc1cccc(C(=O)c2c[nH]c3ncc(-c4ccc(N5CCN(C(=O)CN6CCC(c7ccc(NC8CCC(=O)NC8=O)cc7)CC6)CC5)nc4)cc23)c1F (stereo not drawn) [Example 107, 5-[6-[4-[2-[4-[4-[(2,6-dioxo-3-piperidyl)amino]phenyl]-1-piperidyl]acetyl]piperazin-1-yl]-3-pyridyl]-3-[3-[[ethyl(methyl)sulfamoyl]amino]-2-fluoro-benzoyl]-1H-pyrrolo[2,3-b]pyridine] | 3.08 nM | 7.97%
CCN(C)S(=O)(=O)Nc1cccc(C(=O)c2c[nH]c3ncc(-c4ccc(N5CCN(C(=O)CC6(O)CCN(c7ccc(NC8CCC(=O)NC8=O)cc7)CC6)CC5)nc4)cc23)c1F (stereo not drawn) [Example 109, 5-[6-[4-[2-[1-[4-[(2,6-dioxo-3-piperidyl)amino]phenyl]-4-hydroxy-4-piperidyl]acetyl]piperazin-1-yl]-3-pyridyl]-3-[3-[[ethyl(methyl)sulfamoyl]amino]-2-fluoro-benzoyl]-1H-pyrrolo[2,3-b]pyridine] | 5.49 nM | 10.8%

The remaining molecules from weak to strong by DC50, led by results:

DC50 | Emax | SMILES
22.9 nM | 4.78% | CCN(C)S(=O)(=O)Nc1ccc(F)c(C(=O)c2c[nH]c3ncc(-c4ccc(C5=CCN(C(=O)CC6CCN(c7ccc(NC8CCC(=O)NC8=O)cc7)CC6)CC5)cc4)cc23)c1F (stereo not drawn) [Example 92, 5-[4-[1-[2-[1-[4-[(2,6-dioxo-3-piperidyl)amino]phenyl]-4-piperidyl]acetyl]-3,6-dihydro-2H-pyridin-4-yl]phenyl]-3-[3-[[ethyl(methyl)sulfamoyl]amino]-2,6-difluoro-benzoyl]-1H-pyrrolo[2,3-b]pyridine]
9.52 nM | 6.76% | CCN(C)S(=O)(=O)Nc1cccc(C(=O)c2c[nH]c3ncc(-c4cnc(N5CCN(C(=O)CN6CCC(c7ccc(NC8CCC(=O)NC8=O)cc7)C(F)(F)C6)CC5)nc4)cc23)c1F (stereo not drawn) [Example 100, 5-[2-[4-[2-[4-[4-[(2,6-dioxo-3-piperidyl)amino]phenyl]-3,3-difluoro-1-piperidyl]acetyl]piperazin-1-yl]pyrimidin-5-yl]-3-[3-[[ethyl(methyl)sulfamoyl]amino]-2-fluoro-benzoyl]-1H-pyrrolo[2,3-b]pyridine]
9.43 nM | 8.26% | CCN(C)S(=O)(=O)Nc1cccc(C(=O)c2c[nH]c3ncc(-c4cnc(N5CCN(C(=O)CN6CCC(c7ccc(NC8CCC(=O)NC8=O)cc7)CC6)CC5)nc4)cc23)c1F (stereo not drawn) [Example 96, 5-[2-[4-[2-[4-[4-[(2,6-dioxo-3-piperidyl)amino]phenyl]-1-piperidyl]acetyl]piperazin-1-yl]pyrimidin-5-yl]-3-[3-[[ethyl(methyl)sulfamoyl]amino]-2-fluoro-benzoyl]-1H-pyrrolo[2,3-b]pyridine]
5.6 nM | 11.4% | CCN(C)S(=O)(=O)Nc1cccc(C(=O)c2c[nH]c3ncc(-c4ccc(N5CCN(C(=O)CN6CCC(c7ccc(OC8CCC(=O)NC8=O)cc7)CC6)CC5)nc4)cc23)c1F (stereo not drawn) [Example 108, 5-[6-[4-[2-[4-[4-[(2,6-dioxo-3-piperidyl)oxy]phenyl]-1-piperidyl]acetyl]piperazin-1-yl]-3-pyridyl]-3-[3-[[ethyl(methyl)sulfamoyl]amino]-2-fluoro-benzoyl]-1H-pyrrolo[2,3-b]pyridine]
4.67 nM | 7.42% | CCN(C)S(=O)(=O)Nc1cccc(C(=O)c2c[nH]c3ncc(-c4cnc(N5CCN(C(=O)CC6CCN(c7ccc(NC8CCC(=O)NC8=O)cc7F)CC6)CC5)nc4)cc23)c1F (stereo not drawn) [Example 98, 5-[2-[4-[2-[1-[4-[(2,6-dioxo-3-piperidyl)amino]-2-fluoro-phenyl]-4-piperidyl]acetyl]piperazin-1-yl]pyrimidin-5-yl]-3-[3-[[ethyl(methyl)sulfamoyl]amino]-2-fluoro-benzoyl]-1H-pyrrolo[2,3-b]pyridine]
3.37 nM | 10.8% | CCN(C)S(=O)(=O)Nc1cccc(C(=O)c2c[nH]c3ncc(-c4cnc(N5CCN(C(=O)CC6(O)CCN(c7ncc(NC8CCC(=O)NC8=O)cc7F)CC6)CC5)nc4)cc23)c1F (stereo not drawn) [Example 104, 5-[2-[4-[2-[1-[5-[(2,6-dioxo-3-piperidyl)amino]-3-fluoro-2-pyridyl]-4-hydroxy-4-piperidyl]acetyl]piperazin-1-yl]pyrimidin-5-yl]-3-[3-[[ethyl(methyl)sulfamoyl]amino]-2-fluoro-benzoyl]-1H-pyrrolo[2,3-b]pyridine]
3.04 nM | 8.98% | CCN(C)S(=O)(=O)Nc1cccc(C(=O)c2c[nH]c3ncc(-c4cnc(N5CCN(C(=O)CC6(O)CCN(c7ccc(NC8CCC(=O)NC8=O)cc7Cl)CC6)CC5)nc4)cc23)c1F (stereo not drawn) [Example 103, 5-[2-[4-[2-[1-[2-chloro-4-[(2,6-dioxo-3-piperidyl)amino]phenyl]-4-hydroxy-4-piperidyl]acetyl]piperazin-1-yl]pyrimidin-5-yl]-3-[3-[[ethyl(methyl)sulfamoyl]amino]-2-fluoro-benzoyl]-1H-pyrrolo[2,3-b]pyridine]
